# Square brackets hold non-standard residues; d marks the D form. Peptide text beside a SMILES is read from it. * marks the point of attachment. Nle = CCCC[C@H](N)C(=O)O; Cbz = O=C(OCc1ccccc1)*
# How the values were obtained:
# melanoma cell lines = test: Proteasome inhibitors, apoptosis of melanoma cell lines (Annexin V FITC flow cytometry); assay type: cell-based, human
# Experimental: The proteasome inhibitors lactacystin, MG-132, and bortezomib were evaluated for the ability to induce apoptosis in malignant melanoma cell lines (n=3) including an early passage line, RJ002L. MG-132 was obtained from Calbiochem (La Jolla, Calif.) and dissolved in DMSO. Lactacystin was purchased from Sigma Chemical Co. (St. Louis, Mo.) and dissolved in PBS. Bortezomib was obtained from a pharmacy as VELCADE (bortezomib) for Injection from a single use vial for intravenous use only (Millennium Pharmaceuticals, Cambridge, Mass.). A cell line with wild-type p53 (RJ002L) and two melanoma cell lines with mutant p53 alleles (C8161 and MUM2B) were included in this study. Two additional melanoma cell lines were also used: cutaneous SK-MeI-28 cells and primary, early passage MG012 cells. In addition, five normal melanocyte culture cell lines (MC-005, MC-006, MC-008, MC-009 and MC-011) were examined. Prior to testing, the melanoma cell lines were maintained in RPMI supplemented with 10% FBS. Normal human melanocytes were isolated from neonatal foreskins as previously described (Qin J et al., 2004, Mol Cancer Ther 3:895-902, 2004) and cultured with medium 154 containing growth supplements (Cascade Biologics, Portland, Oreg.).
# To assess the effect of proteasome inhibitors on the cell lines, the cells were grown in suitable culture media as described above. Highly proliferating cells (i.e., cells that had reached approximately 30% confluency) were exposed to the inhibitors as described below. The culture media was replenished with media containing proteasome inhibitors at various concentrations and the cells were incubated for 24 hours prior to harvesting the cells for further analysis.
# Following treatment with the proteasome inhibitors, the melanoma and melanocyte cell cultures were assayed for apoptotic cells using the APO TARGET Annexin V FITC staining kit (Biosource, Camarillo, Calif.) according to the manufacturer's instructions followed by flow cytometric analysis using FACScaliber (Becton Dickinson, Palo Alto, Calif.) as described in Qin, J. et al., 2001, Nat Med 7: 385-386. In some cases, cell cycle and apoptosis analysis was measured using propidium iodide staining and flow cytometry as described. Cells with DNA content less than the G0 amount of untreated cells were considered apoptotic. For cell analysis, DNA histograms were analyzed using MultiCycle for Windows (Phoenix Flow Systems, San Diego, Calif.) as described in Denning, M. F. et al., 1998, J Biol Chem 273: 29995-30002.
# Notch-1 = test: Notch Western blot in MDA-MB231 cells; assay type: cell-based, human
# Experimental: Notch silencing was confirmed by Western blot using commercial goat polyclonal antibodies from Santa Cruz Biotechnology to Notch-1 (C-20, Cat# sc-6014 S) and Notch-4 (C-19, Cat# sc-8644). Total cell lysates were prepared as follows: cells grown on 6 cm dishes were scraped in lysis buffer containing 1×PBS, 1% Nonidet P40, 0.5% deoxycholate, 0.1% SDS, freshly added aprotinin (45 μg/ml), phenylmethylsulfonyl fluoride (10 μg/ml), and sodium orthovanadate (10 μM). Lysates were sonicated 4 times for 5 seconds each, followed by 30 minutes incubation on ice. Lysates were centrifuged at 10,000 g for 20 minutes at 4° C. Supernatants were used as total cell lysates. Nuclear extracts were prepared as follows: 10,000,000 cells were pelleted, washed, and quickly frozen in a dry ice bath. Pellets were thawed by adding 100 μl of buffer 1 (10 mM HEPES, pH 7.9, 10 mM KCl, 1.5 mM MgCl2, 1 mM DTT). Nuclei were pelleted and lysed in 15 μl Buffer 2 (20 mM HEPES, pH7.9, 0.4 M NaCl, 1.5 mM MgCl2, 25% glycerol, 0.2 mM EDTA, 1 mM DTT, and 0.5 mM PMSF). Lysates were diluted in 50-70 μl Buffer 3 (20 mM HEPES, pH 7.9, 50 mM KCl, 20% glycerol, 0.2 mM EDTA, 1 mM DTT, 0.5 mM PMSF). Protein concentrations were estimated using the BCA protein assay (Pierce). Supernatants were boiled in reducing SDS sample buffer (Novex). Twenty μg protein per lane were run on a 3-8% Tris acetate gel (Invitrogen) in Tris Acetate Reducing Running Buffer (Novex). Protein bands were transferred onto PVDF membranes (BioRad) using transfer buffer (Novex). Membranes were then blocked overnight at 4° C. in 2% blocking solution in TBS (Roche). Primary antibodies were diluted in 2% Boehringer blocking solution (total volume 5 ml). Membranes were incubated for one hour at room temperature with shaking, then washed 6 times for 10 minutes each in TBS wash buffer. Membranes were incubated in secondary antibody in 2% of blocking solution for 30 minutes, then washed 6 times for 10 minutes each at RT in wash buffer. Bands were detected with chemiluminescent reagent (Roche) according to the manufacturer's directions. […]
compound,measurement,setting,value
"CC(C)C[C@H](NC(=O)[C@H](Cc1ccccc1)NC(=O)c1cnccn1)B(O)O [bortezomib, N-(2-pyrazine)carbonyl-L-phenylalanine-L-leucine boronic acid]",concentration triggering significant apoptotic response (p<0.05),melanoma cell lines; all melanoma cell lines examined,≥ 0.1 µM
same,dead cells,"melanoma cell lines; all melanoma cell lines tested, 10 μM, 24 hrs continuous exposure",30-70%
"CCCC[C@@H](C=O)NC(=O)[C@H](CC(C)C)NC(=O)[C@H](CC(C)C)NC(=O)OCc1ccccc1 [z-Leu-Leu-Nle-CHO, N-benzyloxycarbonyl-leucyl-leucyl-norleucinal] (Cbz-Leu-Leu-[Nle]-aldehyde)",N^IC and N^TM levels,"Notch-1; MDA-MB231, 0.5, 1 or 2 μM, 24 h, virtually complete at 2 μM",dose-dependent decrease in N^IC and relative accumulation of N^TM
5′-AAGTGTCTGAGGCCAGCAAGA-3′ [Notch-1 siRNA],expression of Notch-1 and Notch-4,"Notch-1; MDA-MB231 / HMEC, data not shown",strongly inhibited the expression of both Notch-1 and -4
"CC(C)C[C@@H](C=O)NC(=O)[C@H](CC(C)C)NC(=O)[C@H](CC(C)C)NC(=O)OCc1ccccc1 [MG-132, benzoxycarbonyl-Leucyl-Leucyl-Leucyl-aldehyde] (Cbz-Leu-Leu-Leu-aldehyde)",apoptotic response to increasing concentrations,"melanoma cell lines; RJ002L, MG012, C8161, MUM2B, SK-MeI-28, 1-10 μM, 24 hrs",significantly enhanced apoptotic responses

# Source: patent publication US20080220416A1, “Compositions for Inhibiting Cell Growth and Inducing Apoptosis in Cancer Cells and Methods of Use Thereof” (THE BOARD OF TRUSTEES OF THE UNIVERSITY OF ILLINOI, priority 2004, published 2008)
